# Experiments:
# [1] = target: T1, 17-beta-hydroxysteroid dehydrogenase type 1 (Homo sapiens, UniProt P14061)
# T1 sequence (P14061 whole entry): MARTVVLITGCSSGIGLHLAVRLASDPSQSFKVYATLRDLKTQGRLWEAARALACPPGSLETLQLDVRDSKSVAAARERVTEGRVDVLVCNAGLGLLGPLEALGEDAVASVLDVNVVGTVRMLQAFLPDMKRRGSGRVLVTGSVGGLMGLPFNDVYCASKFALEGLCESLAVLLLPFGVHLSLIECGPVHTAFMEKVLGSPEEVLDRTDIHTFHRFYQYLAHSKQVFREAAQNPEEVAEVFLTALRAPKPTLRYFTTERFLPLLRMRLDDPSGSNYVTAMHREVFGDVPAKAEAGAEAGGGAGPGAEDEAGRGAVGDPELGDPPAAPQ
# Description: Inhibition of human placental cytosolic fraction 17beta-HSD1 using [3H]-E1 as substrate in presence of NAD+ by radio-HPLC analysis
# [2] = target: T2, Estradiol 17-beta-dehydrogenase 2 (Mus musculus, UniProt P51658); assay: biochemical; type: tissue-based, Liver
# T2 sequence (P51658 whole entry): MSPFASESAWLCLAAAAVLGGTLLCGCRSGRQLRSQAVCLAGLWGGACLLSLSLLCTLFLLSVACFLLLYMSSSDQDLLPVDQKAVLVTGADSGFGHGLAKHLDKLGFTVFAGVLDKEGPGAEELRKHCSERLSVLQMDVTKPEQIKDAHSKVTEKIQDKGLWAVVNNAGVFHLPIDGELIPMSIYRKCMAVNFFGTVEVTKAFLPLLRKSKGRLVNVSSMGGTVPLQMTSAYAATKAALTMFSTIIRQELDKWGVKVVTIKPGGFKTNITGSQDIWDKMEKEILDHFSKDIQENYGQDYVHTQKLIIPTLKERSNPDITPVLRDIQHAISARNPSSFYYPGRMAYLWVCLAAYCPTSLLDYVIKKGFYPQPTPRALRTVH
# Description: Inhibition of mouse liver homogenate 17beta-HSD2 using [3H]-E2 as substrate in presence of NAD+ by radio-HPLC analysis
# [3] = in vitro; settings: human, s9
# Description: Half life in human liver S9 fraction in presence of NADPH, UDPGA, PAPS
# [4] = target: T3, 17-beta-hydroxysteroid dehydrogenase type 1 (Mus musculus, UniProt P51656); type: cell-based, HEK293
# T3 sequence (P51656 whole entry): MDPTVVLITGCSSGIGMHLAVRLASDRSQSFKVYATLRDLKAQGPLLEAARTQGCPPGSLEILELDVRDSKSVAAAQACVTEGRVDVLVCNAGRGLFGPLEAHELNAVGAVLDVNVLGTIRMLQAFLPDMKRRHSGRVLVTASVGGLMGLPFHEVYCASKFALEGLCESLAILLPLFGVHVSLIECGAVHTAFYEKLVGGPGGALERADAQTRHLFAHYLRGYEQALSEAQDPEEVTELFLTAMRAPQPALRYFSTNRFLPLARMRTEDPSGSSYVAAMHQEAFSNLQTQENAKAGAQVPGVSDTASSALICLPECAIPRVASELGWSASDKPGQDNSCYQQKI
# Description: Inhibition of recombinant mouse 17beta-HSD1 expressed in HEK293 cells using [3H]-E1 as substrate in presence of NAD+ by radio-HPLC analysis
# [5] = target: T4, AhR (aryl hydrocarbon receptor); CYP1 induction (Homo sapiens, UniProt P35869); assay: in vitro; settings: hepg2
# T4 sequence (P35869 whole entry): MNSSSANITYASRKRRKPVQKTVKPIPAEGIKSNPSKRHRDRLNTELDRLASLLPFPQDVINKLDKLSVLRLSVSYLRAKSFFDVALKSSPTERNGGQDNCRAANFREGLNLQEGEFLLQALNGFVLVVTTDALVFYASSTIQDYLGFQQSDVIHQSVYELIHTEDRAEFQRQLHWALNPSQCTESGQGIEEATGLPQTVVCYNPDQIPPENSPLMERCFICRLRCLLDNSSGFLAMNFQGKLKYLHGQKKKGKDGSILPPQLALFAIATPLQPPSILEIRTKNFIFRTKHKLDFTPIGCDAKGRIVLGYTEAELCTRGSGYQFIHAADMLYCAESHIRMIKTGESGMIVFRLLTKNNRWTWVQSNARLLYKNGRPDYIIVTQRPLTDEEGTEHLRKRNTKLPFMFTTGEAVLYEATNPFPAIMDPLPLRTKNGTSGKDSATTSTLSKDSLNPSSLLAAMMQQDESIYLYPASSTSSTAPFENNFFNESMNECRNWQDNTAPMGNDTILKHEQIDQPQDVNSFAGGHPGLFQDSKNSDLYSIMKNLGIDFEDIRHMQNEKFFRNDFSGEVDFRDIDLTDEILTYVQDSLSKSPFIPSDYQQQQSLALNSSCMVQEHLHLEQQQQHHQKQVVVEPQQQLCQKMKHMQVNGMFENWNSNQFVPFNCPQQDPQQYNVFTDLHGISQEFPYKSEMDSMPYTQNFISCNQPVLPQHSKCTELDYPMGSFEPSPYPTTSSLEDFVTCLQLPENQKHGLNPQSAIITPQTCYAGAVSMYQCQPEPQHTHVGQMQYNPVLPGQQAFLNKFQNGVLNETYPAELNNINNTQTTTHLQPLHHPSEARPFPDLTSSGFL
# Description: Agonist activity at AhR in human HepG2 assessed as induction of CYP1 at 3.16 uM relative to control
# [6] = target: T5, constitutive androstane receptor (NR1I3); CYP2 induction (Homo sapiens, UniProt Q14994); assay: in vitro
# T5 sequence (Q14994 whole entry): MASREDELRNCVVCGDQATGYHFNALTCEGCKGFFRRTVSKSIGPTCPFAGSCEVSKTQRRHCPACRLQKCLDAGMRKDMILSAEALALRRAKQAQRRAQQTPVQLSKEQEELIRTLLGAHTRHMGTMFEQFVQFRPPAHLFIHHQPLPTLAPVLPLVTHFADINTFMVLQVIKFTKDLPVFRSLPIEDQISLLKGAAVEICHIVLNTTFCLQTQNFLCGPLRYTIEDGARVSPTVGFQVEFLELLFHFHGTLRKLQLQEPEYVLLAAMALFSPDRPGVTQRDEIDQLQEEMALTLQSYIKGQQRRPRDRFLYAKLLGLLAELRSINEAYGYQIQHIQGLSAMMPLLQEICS
# Description: Agonist activity at recombinant human constitutive androstane receptor assessed as induction of CYP2 at 3.16 uM relative to control
# [7] = target: T6, PXR (NR1I2); CYP3 induction (Homo sapiens, UniProt O75469); assay: in vitro
# T6 sequence (O75469 whole entry): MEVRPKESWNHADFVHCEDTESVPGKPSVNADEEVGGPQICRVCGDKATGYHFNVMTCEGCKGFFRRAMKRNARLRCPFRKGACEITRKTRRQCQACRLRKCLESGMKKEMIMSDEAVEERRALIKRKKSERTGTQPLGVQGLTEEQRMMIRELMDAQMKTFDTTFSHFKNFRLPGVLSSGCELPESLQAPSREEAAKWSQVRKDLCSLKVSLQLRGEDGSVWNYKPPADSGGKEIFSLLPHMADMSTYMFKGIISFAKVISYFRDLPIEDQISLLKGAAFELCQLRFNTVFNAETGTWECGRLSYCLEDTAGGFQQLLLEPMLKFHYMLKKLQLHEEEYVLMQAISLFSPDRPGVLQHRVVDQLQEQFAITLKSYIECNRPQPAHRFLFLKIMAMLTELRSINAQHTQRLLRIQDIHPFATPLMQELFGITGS
# Description: Agonist activity at recombinant human PXR assessed as induction of CYP3 at 3.16 uM after 60 mins relative to control
Structure (SMILES),IC50 [1],IC50 [2],half-life [3],also measured
O=C(c1ccc(Cl)c(O)c1)c1ccc(-c2cccc(NS(=O)(=O)c3ccccc3)c2)s1,8.2 nM,–,–,–
O=C(c1ccc(-c2cccc(NS(=O)(=O)c3ccc(F)cc3)c2)s1)c1cc(F)c(F)c(O)c1F,–,27.3 nM,32 min,–
O=C(c1ccc(-c2cccc(NS(=O)(=O)c3ccccc3)c2)s1)c1c(F)ccc(O)c1Cl,15.6 nM,2.7 nM,< 5 min,–
O=C(c1ccc(-c2cccc(NS(=O)(=O)c3ccccc3OC(F)(F)F)c2)s1)c1cc(F)c(F)c(O)c1F,–,–,60 min,"IC50 [4]: 1760 nM; activity at 3.16 µM [5]: < 5%; activity at 3.16 µM [6]: < 5%; activity at 1 h, 3.16 µM [7]: < 5%"
O=C(c1ccc(-c2cccc(NS(=O)(=O)c3ccccc3C(F)(F)F)c2)s1)c1cc(F)c(F)c(O)c1F,–,–,51 min,–
Cc1c(O)cccc1C(=O)c1ccc(-c2cccc(NS(=O)(=O)c3ccccc3)c2)s1,306 nM,–,–,–
O=C(c1ccc(-c2cccc(NS(=O)(=O)c3ccccc3)c2)s1)c1cccc(O)c1Cl,20.3 nM,2.7 nM,< 5 min,–

# The remaining molecules from weak to strong by IC50 [1], led by results:
IC50 [1],IC50 [2],half-life [3],Structure (SMILES),also measured
1.7 nM,–,–,O=C(c1ccc(-c2cccc(NS(=O)(=O)c3ccccc3)c2)s1)c1c(Cl)ccc(O)c1F,–
1.4 nM,30.5 nM,–,O=C(c1ccc(-c2cccc(NS(=O)(=O)c3ccccc3)c2)s1)c1c(F)ccc(O)c1F,–
0.8 nM,5.6 nM,42 min,O=C(c1ccc(-c2cccc(NS(=O)(=O)c3cccc(Cl)c3)c2)s1)c1cc(F)c(F)c(O)c1F,–
0.7 nM,6.2 nM,40 min,O=C(c1ccc(-c2cccc(NS(=O)(=O)c3ccc(Cl)cc3)c2)s1)c1cc(F)c(F)c(O)c1F,–
0.1 nM,7.9 nM,28 min,Cc1cccc(S(=O)(=O)Nc2cccc(-c3ccc(C(=O)c4cc(F)c(F)c(O)c4F)s3)c2)c1,–
0.1 nM,9.9 nM,32 min,Cc1ccc(S(=O)(=O)Nc2cccc(-c3ccc(C(=O)c4cc(F)c(F)c(O)c4F)s3)c2)cc1,–
